Results as given in ChEMBL document CHEMBL5550132, “Structure-activity relationship in NOD2 agonistic muramyl dipeptides” (Eur J Med Chem, 2024).

Key:
[1] = target: Nuclear factor NF-kappa-B complex (Homo sapiens) (UniProt Q00653+P19838+Q04206); test: Activation of NF-KappaB (unknown origin) expressed in HEK293T cells assessed as fold change at 20 uM; type: cell-based; conditions: filed as activator
[2] = target: Nucleotide-binding oligomerization domain-containing protein 2 (Homo sapiens, UniProt Q9HC29); test: Activation of NOD2 in HEK293T cells; type: cell-based; conditions: filed as activator
Sequence of Nucleotide-binding oligomerization domain-containing protein 2 (Q9HC29 whole entry, the tested form may be a part): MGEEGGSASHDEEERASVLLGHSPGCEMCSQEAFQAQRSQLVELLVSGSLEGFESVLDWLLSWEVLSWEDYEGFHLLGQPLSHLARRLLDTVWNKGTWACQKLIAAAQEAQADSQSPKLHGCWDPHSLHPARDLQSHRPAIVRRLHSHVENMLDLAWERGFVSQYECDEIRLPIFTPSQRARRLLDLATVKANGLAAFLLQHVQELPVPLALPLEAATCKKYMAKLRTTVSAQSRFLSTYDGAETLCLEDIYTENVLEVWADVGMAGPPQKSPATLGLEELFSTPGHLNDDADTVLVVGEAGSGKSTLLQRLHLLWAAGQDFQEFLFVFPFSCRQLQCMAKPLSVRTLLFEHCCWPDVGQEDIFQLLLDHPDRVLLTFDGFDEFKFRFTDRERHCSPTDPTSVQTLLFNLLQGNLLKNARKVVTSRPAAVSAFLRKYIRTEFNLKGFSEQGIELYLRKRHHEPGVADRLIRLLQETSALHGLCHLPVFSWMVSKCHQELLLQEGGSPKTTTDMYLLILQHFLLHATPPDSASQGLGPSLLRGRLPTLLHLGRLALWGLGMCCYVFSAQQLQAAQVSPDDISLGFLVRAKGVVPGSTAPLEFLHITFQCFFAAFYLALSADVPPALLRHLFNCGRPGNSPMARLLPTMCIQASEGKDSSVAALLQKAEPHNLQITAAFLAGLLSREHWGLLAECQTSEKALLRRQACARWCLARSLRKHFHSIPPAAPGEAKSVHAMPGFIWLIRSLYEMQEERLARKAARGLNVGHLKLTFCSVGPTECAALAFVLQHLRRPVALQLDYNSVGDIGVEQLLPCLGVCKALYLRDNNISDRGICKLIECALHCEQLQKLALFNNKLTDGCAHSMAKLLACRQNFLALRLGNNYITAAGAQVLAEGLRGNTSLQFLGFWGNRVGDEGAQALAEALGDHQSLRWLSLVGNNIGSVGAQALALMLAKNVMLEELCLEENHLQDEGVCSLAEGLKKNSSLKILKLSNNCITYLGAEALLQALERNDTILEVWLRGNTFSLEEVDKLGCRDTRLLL

Cavia porcellus [3] = species: Cavia porcellus; test: Induction of delayed type hypersensitivity in ABA-BSA immunized Hartley Guinea pigs assessed as reduction in skin lesions at 100 ug measured for 24 hrs; type: functional; conditions: dose 100 µg
Cavia porcellus [4] = species: Cavia porcellus; test: Induction of delayed type hypersensitivity in ABA-BSA immunized Hartley Guinea pigs assessed as reduction in skin lesions at 100 ug measured for 48 hrs; type: functional; conditions: dose 100 µg

Sequence of Nuclear factor NF-kappa-B complex (Homo sapiens) (P19838 whole entry, looked up, the tested form may be a part): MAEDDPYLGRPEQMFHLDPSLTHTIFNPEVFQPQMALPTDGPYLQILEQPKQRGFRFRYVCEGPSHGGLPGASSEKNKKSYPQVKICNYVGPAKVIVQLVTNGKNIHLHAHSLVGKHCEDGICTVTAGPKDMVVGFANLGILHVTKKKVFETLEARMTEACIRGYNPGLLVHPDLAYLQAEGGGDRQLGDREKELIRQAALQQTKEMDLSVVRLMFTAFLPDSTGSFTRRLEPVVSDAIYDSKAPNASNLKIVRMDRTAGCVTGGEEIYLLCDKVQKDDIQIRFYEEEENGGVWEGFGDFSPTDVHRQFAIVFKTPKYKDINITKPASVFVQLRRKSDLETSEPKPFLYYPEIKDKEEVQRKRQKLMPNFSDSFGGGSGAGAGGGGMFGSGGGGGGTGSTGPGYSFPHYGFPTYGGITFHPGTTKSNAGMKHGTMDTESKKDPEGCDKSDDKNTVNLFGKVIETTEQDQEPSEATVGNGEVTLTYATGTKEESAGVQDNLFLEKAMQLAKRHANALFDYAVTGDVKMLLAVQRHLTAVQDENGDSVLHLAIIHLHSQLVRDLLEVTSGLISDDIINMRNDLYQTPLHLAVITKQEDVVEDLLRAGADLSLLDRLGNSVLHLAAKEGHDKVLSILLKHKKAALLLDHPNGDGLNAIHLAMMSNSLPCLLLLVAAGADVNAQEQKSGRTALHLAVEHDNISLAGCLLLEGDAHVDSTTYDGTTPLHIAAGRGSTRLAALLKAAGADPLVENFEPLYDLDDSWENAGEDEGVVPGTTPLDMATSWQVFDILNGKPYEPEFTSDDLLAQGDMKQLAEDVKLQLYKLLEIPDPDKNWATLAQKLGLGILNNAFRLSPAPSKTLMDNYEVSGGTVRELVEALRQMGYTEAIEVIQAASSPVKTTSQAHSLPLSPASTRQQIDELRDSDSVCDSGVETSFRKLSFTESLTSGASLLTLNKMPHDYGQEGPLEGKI
Sequence of Nuclear factor NF-kappa-B complex (Homo sapiens) (Q00653 whole entry, looked up, the tested form may be a part): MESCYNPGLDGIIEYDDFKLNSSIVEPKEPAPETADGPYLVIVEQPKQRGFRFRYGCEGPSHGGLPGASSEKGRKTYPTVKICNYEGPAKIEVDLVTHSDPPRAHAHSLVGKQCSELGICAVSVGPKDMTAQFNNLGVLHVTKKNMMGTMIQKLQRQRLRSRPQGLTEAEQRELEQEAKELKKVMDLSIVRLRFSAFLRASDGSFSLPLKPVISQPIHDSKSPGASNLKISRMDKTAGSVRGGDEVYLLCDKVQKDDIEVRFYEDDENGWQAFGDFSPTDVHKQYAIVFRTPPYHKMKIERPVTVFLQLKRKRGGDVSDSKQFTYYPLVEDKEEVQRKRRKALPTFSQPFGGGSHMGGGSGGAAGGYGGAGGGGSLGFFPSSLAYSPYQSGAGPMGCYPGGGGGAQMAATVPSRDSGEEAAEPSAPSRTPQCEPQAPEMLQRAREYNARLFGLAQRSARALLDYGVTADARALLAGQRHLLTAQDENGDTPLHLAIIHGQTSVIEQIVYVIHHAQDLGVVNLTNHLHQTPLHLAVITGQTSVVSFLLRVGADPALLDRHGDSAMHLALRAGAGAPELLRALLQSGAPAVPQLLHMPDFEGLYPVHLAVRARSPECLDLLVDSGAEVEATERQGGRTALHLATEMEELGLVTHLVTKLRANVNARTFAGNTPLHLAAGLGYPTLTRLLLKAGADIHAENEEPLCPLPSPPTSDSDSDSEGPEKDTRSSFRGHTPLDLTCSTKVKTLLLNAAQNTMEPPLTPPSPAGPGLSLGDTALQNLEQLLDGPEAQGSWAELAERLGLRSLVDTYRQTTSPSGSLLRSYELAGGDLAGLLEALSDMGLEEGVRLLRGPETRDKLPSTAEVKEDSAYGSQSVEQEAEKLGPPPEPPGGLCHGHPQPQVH
Sequence of Nuclear factor NF-kappa-B complex (Homo sapiens) (Q04206 whole entry, looked up, the tested form may be a part): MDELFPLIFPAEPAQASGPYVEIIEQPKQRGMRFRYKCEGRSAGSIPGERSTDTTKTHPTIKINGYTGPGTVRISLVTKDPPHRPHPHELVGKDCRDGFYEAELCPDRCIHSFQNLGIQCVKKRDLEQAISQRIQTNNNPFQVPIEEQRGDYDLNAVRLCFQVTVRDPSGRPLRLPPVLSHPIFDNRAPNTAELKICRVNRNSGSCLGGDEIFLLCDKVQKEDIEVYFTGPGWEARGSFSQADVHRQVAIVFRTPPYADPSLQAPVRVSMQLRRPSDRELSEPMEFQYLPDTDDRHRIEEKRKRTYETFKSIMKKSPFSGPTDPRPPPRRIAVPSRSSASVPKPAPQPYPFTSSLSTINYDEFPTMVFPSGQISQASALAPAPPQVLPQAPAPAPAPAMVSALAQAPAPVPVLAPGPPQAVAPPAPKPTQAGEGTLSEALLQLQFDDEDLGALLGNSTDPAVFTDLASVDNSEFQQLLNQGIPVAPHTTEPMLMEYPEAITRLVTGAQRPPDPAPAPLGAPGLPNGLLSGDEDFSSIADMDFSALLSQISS

fold change (FC) [1]	SMILES	Activity (Cavia porcellus [3])	Activity (Cavia porcellus [4])	also measured
1.9	C[C@H](NC(=O)[C@@H](C)O[C@H]1[C@H](O)[C@@H](CO)O[C@@H](O)[C@@H]1NC(=O)C(F)(F)F)C(=O)N[C@H](CCC(=O)O)C(N)=O			
2.3	C[C@H](NC(=O)[C@@H](C)O[C@H]1[C@H](O)[C@@H](CO)O[C@@H](O)[C@@H]1NC(=O)CCC(=O)O)C(=O)N[C@H](CCC(=O)O)C(N)=O			
	CCO[C@@H]1O[C@H](CO)[C@@H](O[C@@H]2O[C@H](CO)[C@@H](O[C@@H]3O[C@H](CO)[C@@H](O[C@@H]4O[C@H](CO)[C@@H](O)[C@H](O[C@H](C)C(=O)N[C@@H](C)C(=O)N[C@H](CCC(=O)N[C@@H](CCCCN)C(=O)N[C@H](C)C(=O)N[C@H](C)C(=O)O)C(N)=O)[C@H]4NC(C)=O)[C@H](O)[C@H]3NC(C)=O)[C@H](O[C@H](C)C(=O)N[C@@H](C)C(=O)N[C@H](CCC(=O)N[C@@H](CCCCN)C(=O)N[C@H](C)C(=O)N[C@H](C)C(=O)O)C(N)=O)[C@H]2NC(C)=O)[C@H](O)[C@H]1NC(C)=O			Activity [2]: 12.5 mU
	CCO[C@@H]1O[C@H](CO)[C@@H](O[C@@H]2O[C@H](CO)[C@@H](O[C@@H]3O[C@H](CO)[C@@H](O[C@@H]4O[C@H](CO)[C@@H](O)[C@H](O[C@H](C)C(=O)N[C@@H](C)C(=O)N[C@H](CCC(=O)N[C@@H](CCCCN)C(=O)O)C(N)=O)[C@H]4NC(C)=O)[C@H](O)[C@H]3NC(C)=O)[C@H](O)[C@H]2NC(C)=O)[C@H](O[C@H](C)C(=O)N[C@@H](C)C(=O)N[C@H](CCC(=O)N[C@@H](CCCCN)C(=O)O)C(N)=O)[C@H]1NC(C)=O			Activity [2]: 0.5 mU
	CCO[C@@H]1O[C@H](CO)[C@@H](O[C@@H]2O[C@H](CO)[C@@H](O[C@@H]3O[C@H](CO)[C@@H](O[C@@H]4O[C@H](CO)[C@@H](O)[C@H](O[C@H](C)C(=O)N[C@@H](C)C(=O)N[C@H](CCC(=O)N[C@@H](CCCCN)C(=O)O)C(N)=O)[C@H]4NC(C)=O)[C@H](O)[C@H]3NC(C)=O)[C@H](O[C@H](C)C(=O)N[C@@H](C)C(=O)N[C@H](CCC(=O)N[C@@H](CCCCN)C(=O)O)C(N)=O)[C@H]2NC(C)=O)[C@H](O)[C@H]1NC(C)=O			Activity [2]: 30 mU
	CC(=O)N[C@@H]1[C@@H](O[C@H](C)C(=O)N[C@@H](C)C(=O)N[C@H](CCC(=O)O)C(N)=O)[C@H](O[C@@H]2O[C@H](CO)[C@@H](O)[C@H](O)[C@H]2NC(C)=O)[C@@H](CO)O[C@H]1O			Activity [2]: 1000 mU
	CCO[C@@H]1O[C@H](CO)[C@@H](O[C@@H]2O[C@H](CO)[C@@H](O[C@@H]3O[C@H](CO)[C@@H](O[C@@H]4O[C@H](CO)[C@@H](O)[C@H](O[C@H](C)C(=O)N[C@@H](C)C(=O)N[C@H](CCC(=O)N[C@@H](CCCCN)C(=O)N[C@H](C)C(=O)O)C(N)=O)[C@H]4NC(C)=O)[C@H](O)[C@H]3NC(C)=O)[C@H](O)[C@H]2NC(C)=O)[C@H](O[C@H](C)C(=O)N[C@@H](C)C(=O)N[C@H](CCC(=O)N[C@@H](CCCCN)C(=O)N[C@H](C)C(=O)O)C(N)=O)[C@H]1NC(C)=O			Activity [2]: 0.09 mU
	CC(=O)N[C@@H]1[C@@H](O)[C@H](O[C@@H]2O[C@H](CO)[C@@H](O)[C@H](O[C@H](C)C(=O)N[C@@H](C)C(=O)N[C@H](CCC(=O)O)C(N)=O)[C@H]2NC(C)=O)[C@@H](CO)O[C@H]1O			Activity [2]: 900 mU
	CC(=O)N[C@@H]1[C@@H](O[C@H](C)C(=O)N[C@H](C(=O)N[C@H](CCC(=O)O)C(N)=O)C(C)C)[C@H](O)[C@@H](CO)O[C@H]1O	25.2 mm	24.6 mm	
2.5	C[C@H](NC(=O)[C@@H](C)O[C@H]1[C@H](O)[C@@H](CO)O[C@@H](O)[C@@H]1NOC(=O)CCCC[C@@H]1SC[C@@H]2NC(=O)N[C@@H]21)C(=O)N[C@H](CCC(=O)O)C(N)=O			
	CC(=O)N[C@@H]1[C@@H](O[C@H](C)C(=O)N[C@@H](CO)C(=O)N[C@H](CCC(=O)O)C(N)=O)[C@H](O)[C@@H](CO)O[C@H]1O	23.1 mm	21.6 mm	
	CCCCCCCCCCCCCCCCCC(=O)NC[C@H]1O[C@@H](O)[C@H](NC(C)=O)[C@@H](O[C@H](C)C(=O)N[C@H](C(=O)N[C@H](CCC(=O)O)C(N)=O)C(C)C)[C@@H]1O	22.5 mm	18.5 mm	
1.8	C[C@H](NC(=O)[C@@H](C)O[C@H]1[C@H](O)[C@@H](CO)O[C@@H](O)[C@@H]1NC(=O)CN=[N+]=[N-])C(=O)N[C@H](CCC(=O)O)C(N)=O			
	CC(=O)N[C@@H]1[C@@H](O[C@H](C)C(=O)N[C@@H](CO)C(=O)N[C@H](CCC(=O)O)C(N)=O)[C@H](O)[C@@H](CN)O[C@H]1O	21.6 mm	22.3 mm	
0.04	CCCCCCCCCCCCCCOC(=O)CC[C@@H](NC(=O)[C@H](C)NC(=O)[C@@H](C)O[C@H]1[C@H](O)[C@@H](CO)O[C@@H](OCc2ccccc2)[C@@H]1N=[N+]=[N-])C(N)=O			
	CC(=O)N[C@@H]1[C@@H](O[C@H](C)C(=O)N[C@H](C(=O)N[C@H](CCC(=O)O)C(N)=O)C(C)C)[C@H](O)[C@@H](CN)O[C@H]1O	20.4 mm	15.3 mm	
	CCCCCCCCCCCCCCCCCC(=O)NC[C@H]1O[C@@H](O)[C@H](NC(C)=O)[C@@H](O[C@H](C)C(=O)N[C@@H](C)C(=O)N[C@H](CCC(=O)O)C(N)=O)[C@@H]1O	20.5 mm	15.8 mm	
0.04	CCCCCCCCOC(=O)CC[C@@H](NC(=O)[C@H](C)NC(=O)[C@@H](C)O[C@H]1[C@H](O)[C@@H](CO)O[C@@H](OCc2ccccc2)[C@@H]1N=[N+]=[N-])C(N)=O			
	CC(=O)N[C@@H]1[C@@H](O)[C@H](O[C@@H]2O[C@H](CO)[C@@H](O)[C@H](O[C@H](C)C(=O)N[C@@H](C)C(=O)N[C@H](CCC(=O)N[C@@H](CCCCN)C(=O)O)C(N)=O)[C@H]2NC(C)=O)[C@@H](CO)O[C@H]1O			Activity [2]: 100 mU
0.08	C[C@H](NC(=O)[C@@H](C)O[C@H]1[C@H](O)[C@@H](CO)O[C@@H](OCc2ccccc2)[C@@H]1N=[N+]=[N-])C(=O)N[C@H](CCC(=O)O)C(N)=O			
	C[C@H](NC(=O)[C@@H](C)O[C@@H]1[C@@H](N)[C@H](O)O[C@H](CN)[C@H]1O)C(=O)N[C@H](CCC(=O)O)C(N)=O	15.1 mm	9.3 mm	
	CCCCCCCC(=O)NC[C@H]1O[C@@H](O)[C@H](NC(C)=O)[C@@H](O[C@H](C)C(=O)N[C@@H](C)C(=O)N[C@H](CCC(=O)O)C(N)=O)[C@@H]1O	16.7 mm	8.8 mm	
2.4	COC(=O)CCC(=O)N[C@@H]1[C@@H](O[C@H](C)C(=O)N[C@@H](C)C(=O)N[C@H](CCC(=O)O)C(N)=O)[C@H](O)[C@@H](CO)O[C@H]1O			
2.2	CC(=O)OCC(=O)N[C@@H]1[C@@H](O[C@H](C)C(=O)N[C@@H](C)C(=O)N[C@H](CCC(=O)O)C(N)=O)[C@H](O)[C@@H](CO)O[C@H]1O			
	CC(=O)NC[C@H]1O[C@@H](O)[C@H](NC(C)=O)[C@@H](O[C@H](C)C(=O)N[C@@H](C)C(=O)N[C@H](CCC(=O)O)C(N)=O)[C@@H]1O	21.4 mm	16.7 mm	
0.11	C[C@H](NC(=O)[C@@H](C)O[C@H]1[C@H](O)[C@@H](CO)O[C@@H](OCc2ccccc2)[C@@H]1N=[N+]=[N-])C(=O)N[C@H](CCC(=O)OCc1ccccc1)C(N)=O			
